Reference: US5081117A (priority 1989, dated 1992)
Structures can show the parent of a compound that is named as a salt.

These molecules were tested against T1, acetylcholinesterase (AChE), rat striatum (Rattus norvegicus, UniProt P37136) (assay: In vitro inhibition of acetylcholinesterase activity in rat striatum (modified Ellman method)).
T1 construct: corpora striata dissected free, weighed and homogenized in 19 volumes; from tissue; host or cells: homogenate of corpora striata of male Wistar rats
T1 sequence (P37136 32-614): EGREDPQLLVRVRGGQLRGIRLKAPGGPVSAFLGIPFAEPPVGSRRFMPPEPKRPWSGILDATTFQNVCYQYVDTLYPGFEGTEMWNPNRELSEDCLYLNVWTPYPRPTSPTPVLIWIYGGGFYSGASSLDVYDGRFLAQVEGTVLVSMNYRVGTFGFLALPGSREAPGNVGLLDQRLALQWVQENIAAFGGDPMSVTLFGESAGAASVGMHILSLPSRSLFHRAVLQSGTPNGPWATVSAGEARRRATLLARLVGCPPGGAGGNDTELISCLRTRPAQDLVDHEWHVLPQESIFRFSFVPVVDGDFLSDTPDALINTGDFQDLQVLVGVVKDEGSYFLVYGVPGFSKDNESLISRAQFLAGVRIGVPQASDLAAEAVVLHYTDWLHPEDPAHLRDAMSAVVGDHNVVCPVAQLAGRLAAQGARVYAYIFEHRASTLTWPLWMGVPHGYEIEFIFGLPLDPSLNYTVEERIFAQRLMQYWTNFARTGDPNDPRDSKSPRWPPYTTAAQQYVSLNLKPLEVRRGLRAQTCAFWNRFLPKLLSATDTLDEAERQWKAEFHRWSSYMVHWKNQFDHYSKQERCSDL
Assay type: biochemical, Male Wistar rats
Excerpt: Cholinesterases are found throughout the body, both in the brain and in serum. However, only brain acetylcholinesterase (AChE) distribution is correlated with central cholinergic innervation. […] We have determined in vitro inhibition of acetylcholinesterase activity in rat striatum according to the method described below.
In Vitro Inhibition of Acetylcholinesterase Activity in Rat Striatum
The method described below was used in this invention for assaying anticholinesterase activity. This is a modification of the method of Ellman et al., Biochem. Pharmacol. 7, 88 (1961).
1. 0.05M Phopsphate buffer, pH 7.2
(a) 6.85 g NaH2 PO4 .cndot.H2 O/100 ml distilled H2 O
(c) add (a) to (b) until pH reaches 7.2
(a) 9.9 mg 5,5-dithiobisnitrobenzoic acid (DTNB) (0.25 mM)
(b) 99 mg s-acetylthiocholine chloride (5 mM)
(c) q.s. to 100 ml with 0.05M phosphate buffer, pH 7.2 (reagent 1)
3. For most assays, a 2 mM stock solution of the test drug is made up in a suitable solvent and serially diluted such that the final concentration in the preincubation step ranges from 10^-3 to 10^-6 M. Different concentrations may be used depending on the potency of the drug.
Male Wistar rats are decapitated, brains rapidly removed, corpora striata dissected free, weighed and homogenized in 19 volumes (approximately 7 mg protein/ml) of 0.05M phosphate buffer, pH 7.2 using a Potter-Elvehjem homogenizer. A 50 microliter aliquot of the homogenate is added to 50 microliter vehicle of various concentrations of the test drug and preincubated for 10 minutes at room temperature.
1. For routine IC50 determinations the Abbott Bichromatic Analyzer, ABA-100, is used to determine acetylcholinesterase activity.
Incubation temperature: 30° C.
Reaction direction: down:endpoint
Syringe plate: 1:101 dilution
Following the 10 minute preincubation of the tissue (enzyme) with the inhibitor, the samples are mixed with the substrate chromogen buffer by the ABA-100. Using the indicated instrument settings the ABA-100 automatically reads the color reaction and prints out the results in enzyme units after 15 minutes.
2. The enzyme activity can also be measured with a Gilford 250 spectrophotometer. This method is used for more accurate kinetic measurements.
Reagents are added to the reference and sample side of a split curvette as follows:
The unhibited activity of the enzyme (tissue homogenate) is first determined. Test drugs are made up in a suitable solvent and added in suitable dilutions to the buffer vehicle. The reaction rate is determined by the slope of the recorded absorbance change. The actual rate (moles/liter/min) can be calculated as described in the following formula
rate (moles/liter/min)=slope/(1.36×10^4)

SMILES | IC50
CNC(=O)Oc1cc2c(cc1Br)[C@]1(C)CCN(C)[C@@H]1N2C (relative stereo) [cis-(±)-5-Bromo-1,2,3,3a,8,8a-hexahydro-1,3a,8-trimethylpyrrolo[2,3-b]indol-6-yl methyl carbamate sesquifumarate] | 13 nM
CN1CC[C@@]2(C)c3ccc(OC(=O)NC4CCCCC4)cc3N(C)[C@@H]12 (relative stereo) [cis-(±)-1,2,3,3a,8,8a-Hexahydro-1,3a,8-trimethylpyrrolo[2,3-b]indol-6-ylcyclohexyl carbamate salicylate] | 5500 nM
CNC(=O)Oc1ccc2c(c1)N(C)[C@H]1N(C)CC[C@@]21C (relative stereo) [cis-(±)-1,2,3,3a,8,8a-Hexahydro-1,3a,8-trimethylpyrrolo[2,3-b]indol-6-ylmethylcarbamate salicylate] | 230 nM
CN1CC[C@@]2(C)c3c(OC(=O)NC4CCCCC4)cccc3N(C)[C@@H]12 (relative stereo) [cis-(±)-1,2,3,3a,8,8a-Hexahydro-1,3a,8-trimethylpyrrolo[2,3-b]indol-4-ylcyclohexyl carbamate fumarate] | 550 nM
CNC(=O)Oc1cccc2c1[C@]1(C)CCN(C)[C@@H]1N2C (relative stereo) [cis-(±)-1,2,3,3a,8,8a-Hexahydro-1,3a,8-trimethylpyrrolo[2,3-b]indol-4-ylmethylcarbamate fumarate] | 60 nM
